The record followed here is patent US20190211020A1 (Agency for Science, Technology and Research, priority 2012, published 2019).

Like-named read-outs stand apart in the source and are kept apart here.

In test [1] the test system is eIF4E Ser209 phosphorylation in Hela cells. Kind of test: MNK cell-based assay (AlphaScreen SureFire, eIF4E Ser209 phosphorylation). The settings on record: Homo sapiens; eIF4E Ser209 phosphorylation, Hela cells, 2 hours; read-out: IC50 Hela. A digest of the protocol: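 Hela cells (30,000/well) exposed to test compound in serum-free medium for 2 h at 37 °C, then lysed. Phospho-Ser209 eIF4E quantified by AlphaScreen SureFire; IC50 obtained by non-linear regression of signal versus log compound concentration.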

The subject of test [2] is K562 cells (myelogenous leukemia) over-expressing eIF4E. Kind of test: Cell cytotoxicity assay (CellTiter-Glo), K562. The format is cell-based. The settings on record: for IC50: Homo sapiens, cell viability. As to the method:
(§1) Cancer cell lines, MV-4-11 (leukemia), P116.c139 (acute T cell leukemia) and D1.1 (acute T cell leukemia), were purchased from ATCC and cultured according to supplier's recommendations. K562 cells (myelogenous leukemia) over-expressing eIF4E, were also used for the cytotoxicity assay. For cells treated for 48 hours, 5000 cells were seeded in 70 μl of growth medium in black, flat-bottom 96-well plate. For cells treated for six days, 1000 cells were seeded in 70 μl of growth medium in black, flat-bottom 96-well plate. […] 50 μl of the diluted compounds was added to the cells and incubated at 37° C. in 5% CO2. After 48 hours or six days treatment, cell viability was determined by CellTiter-Glo Luminescent Cell Viability Assay (Promega, Madison, Wis.). 120 μl of the reagent was added to the cells and luminescence was measured using Tecan Safire Reader. Data was analysed with Graphpad Prism software and the figures represented indicate the half maximal inhibitory concentration (IC50). Error bars denote standard deviation (SD).
Background: ATP-based viability assays read luminescence as a measure of living cells.

The test system of a further test is MV-4-11 (leukemia). The test is described as follows: Cell cytotoxicity assay (CellTiter-Glo), MV-4-11. The format is cell-based. The settings on record: Homo sapiens, cell viability. How it is done:
as §1

The test system of test [3] is D1.1 (acute T cell leukemia). The test is described as follows: Cell cytotoxicity assay (CellTiter-Glo), D1.1. It is filed as cell-based. The settings on record: T-cell, cell viability. As to the method:
as §1

For test [4], the system named is nuclear active beta-catenin in BC-CML primary cells. Kind of test: Immunofluorescence of nuclear active beta-catenin in BC-CML primary cells. It is filed as cell-based, human. The text has this:
Cord Blood (CB) samples were purchased from the Singapore Cord Blood bank. CML samples were the Singapore General Hospital after signed informed consent under local IRB-approved procedures. MNCs were obtained using Ficoll separation, and CD34^+ cells selected by immunomagnetic beads (Miltenyi Biotech, Germany).
Cells (1×10^5) were cytospun onto glass slides, fixed with 4% paraformaldehye, and stained with mouse monoclonal antibodies against activated β-catenin (clone 8E7, Millipore, UK), or rabbit monoclonal antibodies against phospho-eIF4E S209 (EP2151Y, Abcam, UK). Slides were then stained with either PE-conjugated anti-mouse or FITC-conjugated anti-rabbit antibodies. Images were obtained with the use of a fluorescence microscope (Olympus IX71S1F3) at 40× magnification.

In a further test the test system is Nlgn3 knock-out mice. Kind of test: Ultrasonic vocalization assay in Nlgn3 knock-out mice (autism model). The format is in vivo, mouse. The settings on record: 50 microgram/kg intraperitoneal, 30 h and 5 h before testing. How it is done:
For biochemical analyses mice were sacrificed by CO2 inhalation, the cerebellum dissected and rapidly placed in a vibratome chamber and sectioned at 300 μm in cold oxygenated aCSF (in mM: 125 NaCl, 2.5 KCl, 1 MgCl2, 2 CaCl2, 1.25 NaH2PO4, 20 Glucose, 26 NaHCO3, 95% O2/5% CO2). Slices obtained were maintained at 33° C. in oxygenated aCSF and treated with 40 μM CGP57380 or 50 nM ETC7168 for 45 mins and tissues were subsequently snap frozen in liquid nitrogen. Tissues were lysed in 25 mM Tris-HCl, 150 mM NaCl, 1% Triton, 0.2% SDS, 5 mM EDTA, 2 mM DTT, 1 mM NaF, 1 mM Na3VO4 containing protease inhibitor cocktail. The soluble fractions were analyzed by immunoblotting with primary antibodies for 24 hrs at 4° C. followed by detection with secondary antibodies for enhanced chemoluminescent detection. […] Behavioral testing was performed using a well-accepted test for autism that consists of quantitative analysis of ultrasonic vocalizations emitted by male mice exposed to females in estrous^75. […] Prior to testing, the estrous cycle of each female mouse was assessed and only females in estrous were kept for testing. […] Subsequently a female in estrous was introduced in the arena, and ultrasonic vocalizations were recorded for 3 min using the Avisoft system (Avisoft Bioacoustics) with a frequency bandwidth of 30 kHz to 100 kHz. The number and length of ultrasonic vocalizations were quantified. […]

As usually defined, the IC50 is the concentration at which inhibition is half-maximal. As for `N#Cc1ccc(-c2cnc3ccc(-c4ccc(C(=O)N5CCOCC5)cc4)nn23)cc1` [Example 62, 4-(6-(4-(morpholine-4-carbonyl)phenyl)imidazo[1,2-b]pyridazin-3-yl)benzonitrile], the 50% inhibitory concentration (IC50) in test [1] was less than 1000 nM; in test [2] (K562, 144 h, 6 days, read-out: IC50 after 6 days of treatment, K562), 3100 nM; in test [2] (K562, 48 hours, read-out: IC50 after 48 hours of treatment, K562) it was 7500 nM; in the test with MV-4-11 (leukemia) (MV4-11, 144 h, 6 days, read-out: IC50 after 6 days of treatment, MV-4-11), 200 nM; in the test on MV-4-11 (leukemia) (MV4-11, 48 hours, read-out: IC50 after 48 hours of treatment, MV-4-11) it was 800 nM; in test [3] (144 h, 6 days, read-out: IC50 after 6 days of treatment, D1.1) it was 1700 nM. In addition, the IC50 in test [3] (48 hours, read-out: IC50 after 48 hours of treatment, D1.1) turned out to be 1600 nM. Moreover, the “change of IC50 when treatment duration was extended from 48 hours to 6 days, K562” value in test [2] (K562 cells over-expressing eIF4E) is “reduced by more than half”. Further, the “nuclear active beta-catenin in BC-CML primary cells, immunofluorescence” value in test [4] is given as “decrease in nuclear beta-catenin accumulation”. For the same compound, the “ultrasonic vocalizations of Nlgn3 knock-out male mice (autism-related behavior)” value in the test on Nlgn3 knock-out mice is recorded as “improves autism-relevant behavior”; with Nlgn3 knock-out mice (listed as ETC7168), “robust elevation of ultrasonic vocalizations”.
